The results in this text go back to patent publication US20240101548A1, “HYDROXAMATE COMPOUND, PREPARATION METHOD THEREFOR AND APPLICATION THEREOF” (SHENZHEN CHIPSCREEN BIOSCIENCES CO., LTD., priority 2020, published 2024).

Where two headings read alike, the source gives them in different places.

The target of experiment [1] is TYK2 JH2 domain (Homo sapiens (Human), UniProt P29597). Nature of the experiment: TYK2 JH2 domain FRET tracer assay. The format is binding. The conditions noted are these: FRET 665/615 nm; read-out: Inhibition activity IC50 on TYK2 JH2 domain. The procedure:
Compound of the present invention formulated into different concentrations (series 3 times dilutions, started from 60 μM, 11 concentrations in total) was added to 384-well plate, followed by 5 μL of enzyme (i.e., TYK2 JH2 domain), Tb antibody (Cisbio) and tracer. The mixture was incubated at 25° C. for 60 min and left at 4° C. overnight.

In experiment [2] the test system is IL-2-induced JAK1/JAK3 signal pathway. Description: IL-2-induced proliferation of KHYG-1 cells (JAK1/JAK3 signal). The class given is cell-based, human. The settings on record: Homo sapiens; KHYG-1 cell proliferation, IL-2 10 ng/mL, 72 hours; read-out: Inhibition activity IC50 on IL-2-induced JAK1/JAK3 signal pathway. The essentials: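 KHYG-1 NK lymphoma cells were cultured with IL-2 and test compound at various doses for 72 h at 37 °C and 5% CO2, and proliferation was read with alamarBlue fluorescence. Inhibition was normalized to wells without compound or cytokine (0%) and IL-2 wells without compound (100%), and C50 was derived from the dose-inhibition data.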

The test system of experiment [3] is IL-10-induced JAK1/TYK2 signal pathway. Description: IL-10-induced JAK1/TYK2 signal pathway STAT3-Luc reporter gene assay in U2OS cells. The format is cell-based, human. The conditions noted are these: Homo sapiens, read-out: Half inhibition dose (IC50) on IL-10-induced JAK1/TYK2 signal pathway. Put shortly:
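U2OS cells co-transfected with IL-10R1-EGFP and STAT3-luciferase reporter plasmids; after 24 h, compound added (0–300 nM) for 6 h before 10 ng/mL human IL-10, then 24 h culture. Luciferase signal normalised to GFP for transfection efficiency; IC50 from inhibition rates.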
(In general: In a reporter assay the amount or activity of a reporter protein is the signal.)

Experiment [4] relates to EPO-induced JAK2 signal pathway. Nature of the experiment: EPO-induced proliferation of UT-7 cells (JAK2 signal). The format is cell-based, human. The settings on record: Homo sapiens, UT7; UT-7 cell proliferation, EPO 10 ng/mL, 72 hours; read-out: Inhibition activity IC50 on EPO-induced JAK2 signal pathway. The essentials:
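UT-7 cells (15000/well) stimulated with 10 ng/mL human recombinant EPO plus compound at final 0, 100, 1000 or 10000 nM, 72 h at 37° C., 5% CO2. Proliferation by alamarBlue fluorescence (Ex530/Em590); inhibition normalised to no-cytokine/no-compound (0) and EPO-only (100) wells, […] derived from dose-inhibition.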

[5] abbreviates: U2OS, U2OS cells, STAT3-Luc reporter, IL-10 10 ng/mL.

Chain of TYK2 JH2 domain (P29597 589-875): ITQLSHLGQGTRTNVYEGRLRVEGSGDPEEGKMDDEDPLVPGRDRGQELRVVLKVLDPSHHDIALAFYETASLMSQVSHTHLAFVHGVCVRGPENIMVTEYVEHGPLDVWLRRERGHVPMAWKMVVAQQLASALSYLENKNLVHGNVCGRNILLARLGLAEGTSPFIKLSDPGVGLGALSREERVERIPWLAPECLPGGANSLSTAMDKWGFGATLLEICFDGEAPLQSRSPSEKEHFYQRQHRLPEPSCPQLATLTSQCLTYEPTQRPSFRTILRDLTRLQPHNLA

For the molecule `CCONC(=O)c1cnc(Nc2cc(C)nc(C)n2)cc1Nc1ccc(C2CC2)cc1N(C)S(C)(=O)=O` [Example 21, 4-((4-cyclopropyl-2-(N-methylmethanesulfonamido)phenyl)amino)-6-((2,6-dimethylpyrimidin-4-yl)amino)-N-ethoxy nicotinamide], the IC50 in experiment [1] was 0.05 nM; in experiment [2], more than 10000 nM; in experiment [3] (setting [5]) it was 0.421 nM; in experiment [4], more than 10000 nM.

Consider `CCONC(=O)c1cnc(Nc2cc(C)nc(C)n2)cc1Nc1cc(F)c(C2CC2)cc1N(C)S(C)(=O)=O` [Example 98], for which the IC50 in experiment [1] is 0.09 nM; in experiment [2], more than 10000 nM; in experiment [3] (setting [5]), 1.51 nM; in experiment [4], more than 10000 nM.

As for `CCONC(=O)c1cnc(Nc2cc(C)nc(C)n2)cc1Nc1ccc(Cl)cc1N(C)S(C)(=O)=O` [Example 115, 4-((4-chloro-2-(N-methylmethanesulfonamido)phenyl)amino)-6-((2,6-dimethylpyrimidin-4-yl)amino)-N-ethoxy nicotinamide], the IC50 is 0.07 nM in experiment [1], more than 10000 nM in experiment [2], 0.261 nM in experiment [3] (setting [5]) and more than 10000 nM in experiment [4].

As to `CCONC(=O)c1cnc(Nc2cc(C)nc(C)n2)cc1Nc1ccc(OCC)cc1N(C)S(C)(=O)=O` [Example 181], the IC50 in experiment [1] was 0.08 nM; in experiment [2] it was more than 10000 nM; in experiment [3] (setting [5]), 0.56 nM; in experiment [4], more than 10000 nM.

Turning to `CCONC(=O)c1cnc(Nc2cc(C)nc(C)n2)cc1Nc1ccc(C)nc1N(C)S(C)(=O)=O` [Example 186], the IC50 in experiment [1] was 0.07 nM; in experiment [2] it was more than 10000 nM; in experiment [3] (setting [5]), 0.276 nM; in experiment [4] it was more than 10000 nM.

`CCONC(=O)c1cnc(Nc2ccnc(C)n2)cc1Nc1ccc(C2CC2)cc1N(C)S(C)(=O)=O` [Example 192, 4-((4-cyclopropyl-2-(N-methylmethanesulfonamido)phenyl)amino)-N-ethoxy-6-((2-methylpyrimidin-4-yl)amino)nicotinamide]: the IC50 was 0.08 nM in experiment [1], more than 10000 nM in experiment [2], 0.458 nM in experiment [3] (setting [5]) and more than 10000 nM in experiment [4].

`CCONC(=O)c1cnc(Nc2cc(C)nc(C)n2)cc1Nc1cc(F)c(CC)cc1N(C)S(C)(=O)=O` [Example 193, 6-((2,6-dimethylpyrimidin-4-yl)amino)-N-ethoxy-4-((4-ethyl-5-fluoro-2-(N-methylmethanesulfonamido)phenyl)amino)nicotinamide]: the IC50 in experiment [1] is 0.06 nM; in experiment [2], more than 10000 nM; in experiment [3] (setting [5]), 0.647 nM; in experiment [4], more than 10000 nM.

Consider `CCONC(=O)c1cnc(Nc2ccnc(C)n2)cc1Nc1cc(F)c(C2CC2)cc1N(C)S(C)(=O)=O` [Example 194, 4-((4-cyclopropyl-5-fluoro-2-(N-methylmethanesulfonamido)phenyl)amino)-N-ethoxy-6-((2-methylpyrimidin-4-yl)amino)nicotinamide], for which the IC50 in experiment [1] is 0.08 nM; in experiment [2], more than 10000 nM; in experiment [3] (setting [5]), 0.6 nM; in experiment [4], more than 10000 nM.

As for `CCONC(=O)c1cnc(Nc2cc(C)nc(C)n2)cc1Nc1cc(F)c(Cl)cc1N(C)S(C)(=O)=O` [Example 198, 4-((4-chloro-5-fluoro-2-(N-methylmethanesulfonamido)phenyl)amino)-6-((2,6-dimethylpyrimidin-4-yl)amino)-N-ethoxy nicotinamide], the IC50 in experiment [1] was 0.08 nM; in experiment [2], more than 10000 nM; in experiment [3] (setting [5]) it was 0.65 nM; in experiment [4], more than 10000 nM.

For the molecule `CCONC(=O)c1cnc(Nc2ccnc(OC)n2)cc1Nc1cc(F)c(Cl)cc1N(C)S(C)(=O)=O` [Example 200, 4-((4-chloro-5-fluoro-2-(N-methylmethanesulfonamido)phenyl)amino)-N-ethoxy-6-((2-methoxypyrimidin-4-yl)amino)nicotinamide], the IC50 is 0.06 nM in experiment [1], more than 10000 nM in experiment [2], 0.42 nM in experiment [3] (setting [5]) and more than 10000 nM in experiment [4].

As to `CCONC(=O)c1cnc(Nc2cc(C)nc(C)n2)cc1Nc1ccc(C(C)C)cc1N(C)S(C)(=O)=O` [Example 201, 6-((2,6-dimethylpyrimidin-4-yl)amino)-N-ethoxy-4-((4-isopropyl-2-(N-methylmethanesulfonamido)phenyl)amino)nicotinamide], the IC50 in experiment [1] is 0.06 nM; in experiment [2], more than 10000 nM; in experiment [3] (U2OS cells, STAT3-Luc reporter, IL-10 10 ng/mL) it was 0.541 nM; in experiment [4], more than 10000 nM.

For the molecule `CCONC(=O)c1cnc(Nc2ccnc(C)n2)cc1Nc1cccc(-c2ncc(F)cn2)c1OC` [Example 243, N-ethoxy-4-((3-(5-fluoropyrimidin-2-yl)-2-methoxyphenyl)amino)-6-((2-methylpyrimidin-4-yl)amino)nicotinamide], the values for the IC50 in experiment [2], in experiment [3] (setting [5]) and in experiment [4] were more than 10000 nM, 0.507 nM and more than 10000 nM, respectively.

With `CCONC(=O)c1cnc(Nc2ncc(F)cc2F)cc1Nc1cc(F)cc(-c2ncn(C3CC3)n2)c1OC` [Example 244, 4-((3-(1-cyclopropyl-1H-1,2,4-triazol-3-yl)-5-fluoro-2-methoxyphenyl)amino)-6-((3,5-difluoropyridin-2-yl)amino)-N-ethoxy nicotinamide], the IC50 in experiment [2] was more than 10000 nM; in experiment [3] (setting [5]) it was 2.58 nM; in experiment [4] it was more than 10000 nM.

Turning to `CCONC(=O)c1cnc(Nc2ccnc(C)n2)cc1Nc1cc(F)cc(-c2ncn(C3CC3)n2)c1OC` [Example 245, 4-((3-(1-cyclopropyl-1H-1,2,4-triazol-3-yl)-5-fluoro-2-methoxyphenyl)amino)-N-ethoxy-6-((2-methylpyrimidin-4-yl)amino)nicotinamide], the values for the IC50 in experiment [2], in experiment [3] (setting [5]) and in experiment [4] were more than 10000 nM, 1.92 nM and more than 10000 nM, respectively.

`CCONC(=O)c1cnc(Nc2cc(C)nc(C)n2)cc1Nc1cc(F)cc(-c2cnccn2)c1OC` [Example 258, 6-((2,6-dimethylpyrimidin-4-yl)amino)-N-ethoxy-4-((5-fluoro-2-methoxy-3-(pyrazin-2-yl)phenyl)amino)nicotinamide]: the figures for the IC50 in experiment [2], in experiment [3] (setting [5]) and in experiment [4] were more than 10000 nM, 2.15 nM and more than 10000 nM, respectively.

For the molecule `CCONC(=O)c1cnc(Nc2cc(C)nc(C)n2)cc1Nc1cccc(-c2ncn(C)n2)c1OC` [Example 268, 6-((2,6-dimethylpyrimidin-4-yl)amino)-N-ethoxy-4-((2-methoxy-3-(1-methyl-1H-1,2,4-triazol-3-yl)phenyl)amino)nicotinamide], the IC50 in experiment [2] is more than 10000 nM; in experiment [3] (setting [5]), 0.315 nM; in experiment [4], more than 10000 nM.

In the case of `[2H]C([2H])([2H])Oc1c(Nc2cc(Nc3cc(C)nc(C)n3)ncc2C(=O)NOCC)cccc1-c1ncc(F)cn1` [Example 273, 6-((2,6-dimethylpyrimidin-4-yl)amino)-N-ethoxy-4-((3-(5-fluoropyrimidin-2-yl)-2-(methoxy-d3)phenyl)amino)nicotinamide], the IC50 in experiment [2] is more than 10000 nM; in experiment [3] (setting [5]), 2.19 nM; in experiment [4], more than 10000 nM.

Take `[2H]C([2H])([2H])Oc1c(Nc2cc(Nc3cc(C)nc(C)n3)ncc2C(=O)NOCC)cccc1-c1ncccn1` [Example 279, 6-((2,6-dimethylpyrimidin-4-yl)amino)-N-ethoxy-4-((2-(methoxy-d3)-3-(pyrimidin-2-yl)phenyl)amino)nicotinamide]: the IC50 was more than 10000 nM in experiment [2], 0.529 nM in experiment [3] (U2OS) and more than 10000 nM in experiment [4].
